Entries after “also recorded” stand apart in the source; their conditions may differ. Ends that are not written are not given here.
Legend:
[1] = test system: vagal afferent nerves; assay: pERK1/2 immunostaining of nodose ganglion, nucleus tractus solitarius and area postrema (Example 4, FIG. 4, 5); assay type: in vivo, mice; conditions: 30 minutes
Description: C57BL/6J male mice were acclimated to the environment and experimental work by preliminary rearing and handling for 1 week or more in individual cages. […] They were post-fixed, and a frozen section specimen was prepared. Using this frozen section specimen, immunostaining of phosphorylated ERK1/2 (pERK1/2), which is a neural activation marker, was performed, and each organ section was photographed with a fluorescence microscope and analyzed.

[2] = test system: sensory nerve disorder model mice by subcutaneous administration of capsaicin; assay: Food intake after intragastric GABA in capsaicin sensory nerve disorder model mice (FIG. 1B); assay type: in vivo; conditions: GABA 200 mg/kg intragastric, capsaicin treatment
Description: (§1) In order to examine the involvement of the vagus nerve which is a visceral sensory nerve, the food intake reducing effect by intragastric administration of GABA was examined using sensory nerve disorder model mice by subcutaneous administration of capsaicin or subdiaphragmatic vagotomized mice. The sensory nerve disorder model mice by subcutaneous administration of capsaicin were prepared as follows. 50 mg/kg of capsaicin (5 ml/kg, solution composition: 10% ethanol, 10% Tween 80, 80% physiological saline) was subcutaneously administered to C57BL/6J male mice under tribromoethanol (200 mg/kg, intraperitoneal administration (ip)) anesthesia, and after 2 days, 50 mg/kg of capsaicin was subcutaneously administered under similar anesthesia. Further, after 2 days, 10 mg/kg of capsaicin was intraperitoneally administered under no anesthesia. After a recovery period of 5 to 7 days, an experiment of food intake was performed. In sham operation and subdiaphragmatic vagotomy, surgery was performed on C57BL/6J male mice under tribromoethanol (200 mg/kg, ip) anesthesia. […] All the mice were fasted overnight (16 hours) on the day before the experiment of food intake, then intragastrically administered a single dose of physiological saline or GABA (200 mg/kg) from 9:45, and fed at 10:00, and the food intake by free-feeding was measured over time. […]

[3] = test system: GLP-1; assay: Fructose-induced GLP-1 secretion, portal plasma ELISA (Example 9, FIG. 13); assay type: in vivo, mice
[4] = test system: sham-operated mice; assay: Food intake after intragastric GABA in sham-operated mice (FIG. 1B); assay type: in vivo; conditions: GABA 200 mg/kg intragastric
Description: as §1

[5] = test system: GLP-1; assay: GLP-1 secretion after glucose with or without GABA, portal plasma ELISA (Example 7, FIG. 10); assay type: in vivo, mice; conditions: addition of GABA (2, 20, 200 mg/kg) to glucose 1 g/kg oral, 15 minutes
[6] = test system: Healthy C57BL/6J male mice; assay: Food intake after GABA, enteral nutrient or both 30 minutes before feeding, healthy mice (Example 2, FIG. 2); assay type: in vivo
Description: Saline (40 ml/kg, po), GABA (200 mg/kg, po), EnsureH (40 ml/kg, po, 1.5 kcal/g) which is an enteral nutrient manufactured by Abbott Japan LLC, or EnsureH+GABA (GABA 200 mg/kg in Ensure, 40 ml/kg, po) were administered from 9:15. The mice were fed 30 minutes after administration, and freely fed. […] At 0.5 h or after, the cumulative food intake (kcal) of the forcibly administered solution and the feed taken was shown (FIG. 2).

[7] = test system: subdiaphragmatic vagotomized mice; assay: Food intake after intragastric GABA in subdiaphragmatic vagotomized mice (FIG. 1B); assay type: in vivo; conditions: GABA 200 mg/kg intragastric, afferent vagotomy
Description: as §1

[8] = test system: GIP; assay: Blood total GIP concentration 30 minutes after intragastric administration (Example 5, FIG. 6); assay type: in vivo, mice
Description: (§2) Healthy C57BL/6J male mice were fasted for 16 hours from 18:00 the day before the experiment. At 10:00, various solutions shown in the figure were intragastrically administered (40 ml/kg). Thirty minutes after administration, blood was collected from the portal vein under isoflurane anesthesia. An anticoagulant (heparin (final concentration 50 IU/ml)) and a peptide degradation inhibitor (aprotinin (final concentration 500 KIU/ml) and vildagliptin (final concentration 10 μM)) were added in advance to the sampling syringe. The collected blood was cooled and centrifuged and stored at −80° C. until the obtained plasma was analyzed. The total GIP concentration (A) and the total GLP-1 concentration (B) in the blood were analyzed using ELISA kits (EZGLP1T-36K and EZRMGIP-55K) manufactured by Millipore Corporation.

[9] = test system: Healthy C57BL/6J male mice; assay: Food intake after intragastric GABA just before feeding in fasted healthy mice (Example 1, FIG. 1A); assay type: in vivo; conditions: GABA solution 20 mg/kg or 200 mg/kg po just before feeding, compared with physiological saline
Description: As experimental animals, C57BL/6J male mice were used. The mice were acclimated to the environment by preliminary rearing for 1 week or more in individual cages in the free-eating and drinking environment at a temperature of 23±2° C., a humidity of 55±10%, a 12 hour light-dark cycle (light period: 7:30 to 19:30). The animal experiment was conducted with approval in accordance with the guidelines of the Committee for Animal Research of Kyoto Prefectural University. […] In each administration, the mice were intragastrically administered (po) a single dose of physiological saline as a control group and GABA (2 mg/kg, 20 mg/kg, 200 mg/kg) as a test group at a dose of 10 ml/kg using a sonde (stainless steel feeding needle). […] The amount of the feed taken is expressed as the cumulative food intake (kcal) or the food intake at each time (kcal) (FIG. 1A). The cumulative food intake (kcal) also includes energy of administered GABA (3.95 kcal/g).

[10] = test system: GIP; assay: Isomerized sugar-induced GIP secretion, portal plasma ELISA (Example 9, FIG. 13); conditions: GABA 60 mg/kg po with glucose+fructose 1 g/kg each
[11] = test system: GLP-1; assay: Blood total GLP-1 concentration 30 minutes after intragastric administration (Example 5, FIG. 6); assay type: in vivo, mice
Description: as §2

[12] = test system: Healthy C57BL/6J male mice; assay: Food intake after sucrose with or without GABA (Example 10, FIG. 14); assay type: in vivo
Description: Thereafter, the mice were fed at 10:00 on the test day, and the food intake by free-feeding was measured over time.

[13] = test system: GIP; assay: Glucose-induced GIP secretion, portal plasma ELISA (Example 7, FIG. 10); assay type: in vivo, mice; conditions: GABA (2, 20, 200 mg/kg) with glucose 1 g/kg oral, 15 minutes
[14] = test system: human subjects; assay: Human test: VAS satiety and appetite, and calorie intake of a lunch box after GABA intake (Example 6); assay type: in vivo; conditions: GABA 100 mg before lunch box, versus placebo
Description: It was examined whether GABA administration also affects the food intake in humans. In 13 human subjects (25 to 43 years old, 5 males and 8 females), changes in the food intake in the presence or absence of GABA administration were confirmed in the following test outline. Specifically, each subject was fasted from 21:00 on the day before the test, and subjective evaluation (satiety, hunger, appetite) was performed by the VAS questionnaire at 12:00 on the test day. Thereafter, a sample (placebo group: dextrin, GABA group: GABA 100 mg) was taken in together with 50 mL of water, and immediately after that, diet (lunch box) was taken. Immediately after diet, at 30 minutes, 60 minutes, and 120 minutes after diet, subjective evaluation (satiety, hunger, appetite) was performed again by the VAS questionnaire, and the remaining amount of a lunch box was photographed to calculate intake kcal.

[15] = test system: Healthy C57BL/6J male mice; assay: Food intake after glucose, fructose, isomerized sugar with or without GABA (Example 8, FIG. 11, 12); assay type: in vivo; conditions: fructose 1 g/kg po alone, compared with control group (saline)
Description: Thereafter, the mice were fed at 10:00 on the test day, and the food intake by free-feeding was measured over time. […] The effect of GABA on the inhibitory action on fructose-induced satiety by glucose was examined. […] Thereafter, the mice were fed at 10:00 on the test day, and the food intake by free-feeding was measured over time.

[16] = test system: C57BL/6J male mice; assay: Conditioned taste aversion test (saccharin preference, Example 3, FIG. 3); assay type: in vivo; conditions: lithium chloride 3 mmol/kg intraperitoneal
Description: C57BL/6J male mice reared in individual cages were given two bottles of water only for 2 hours from 10:00 to 12:00 for 5 days, whereby the mice were acclimated to the water restriction schedule. On day 6, a 0.15% saccharin solution was presented for 30 minutes, and thereafter, lithium chloride (3 mmol/kg) was intraperitoneally administered, whereby the mice were made to acquire an aversion to the taste of the saccharin solution (conditioning). In the same manner, a control group to which physiological saline (10 mL/kg) was intragastrically administered and a test group to which GABA (200 mg/kg) was intragastrically administered were prepared. On day 7 serving as a rest day, the above-described water restriction schedule was performed. On day 8 serving as a test day, two bottles of a 0.15% saccharin solution and water were simultaneously presented for 30 minutes, and the preference of the saccharin solution (saccharin intake/total intake of two bottles×100, %) was determined.

[17] = test system: afferent nerves in the hepatic branch of the vagus nerve; conditions: administration into the hepatic portal vein; J Auton Nerv Syst. 1996; cited from earlier work
[18] = test system: obese patients; conditions: Bergmann et al. 2019, cited from earlier work
[19] = GABA addition to enteral nutrients, 30 minutes after administration
[20] = GABA alone, intragastric 40 ml/kg, 30 minutes after administration
[21] = addition of GABA to the liquid food (EnsureH), 30 minutes

Q: Which “afferent vagal activation by nutrient (pERK1/2)” value ([1]; GABA 200 mg/kg in EnsureH 40 ml/kg po, compared with EnsureH alone) does the source give for `NCCCC(=O)O` [GABA, γ-Aminobutyric acid] here?
A: Its value is “significantly enhances”.

Q: What about the “afferent vagal activity (neuron activities of vagal afferent nerves, nucleus tractus solitarius, area postrema; pERK1/2)” value ([1]; GABA alone 200 mg/kg po, compared with physiological saline) of the same compound?
A: The value was “does not affect”.

Q: What about the “ability to induce the transient satiety or to suppress binge eating on a fasting condition (food intake)” value (from here on “ability”) [2] of the same compound?
A: The value was “impaired”.

Q: And the “fructose-induced GLP-1 secretion” value ([3]; GABA 60 mg/kg po)?
A: Its value is “further enhances”.

Q: What about the GLP-1 secretion ([3]; further addition of GABA 60 mg/kg po to glucose+fructose 1 g/kg each) of the same compound?
A: Its GLP-1 secretion is “enhanced”.

Q: What about the “ability” value [4] of the same compound?
A: The value was “similarly observed”.

Q: And the GLP-1 secretion [5]?
A: The GLP-1 secretion was “does not significantly enhance”.

Q: And the “eating behavior after the start of eating” value ([6]; GABA 200 mg/kg po alone 30 minutes before eating, compared with physiological saline)?
A: The value was “not different”.

Q: What about the “satiety via vagal afferent nerves” value ([6]; GABA addition to enteral nutrients, 30 minutes before feeding) of the same compound?
A: The value was “enhances”.

Q: And the “food intake reducing effect” value ([6]; administration of GABA 30 minutes before diet)?
A: Its value is “greatly reduced”.

Q: What about the “ability” value [7] of the same compound?
A: The value was “impaired”.

Q: And the “GIP secretion (blood GIP increase by nutrient)” value [8, 19]?
A: The value was “suppress; also recorded: suppresses”.

Q: And the “blood GIP concentration” value [8, 20]?
A: The value was “no change”.

Q: And the “GIP concentration relative to liquid food alone” value [8, 21]?
A: The value was “about ⅓”.

Q: And the “fasting food intake within 1 hour from the start of diet after fasting” value ([9]; 16 h fasted)?
A: Its value is “significantly reduced”.

Q: And the “food intake within 2 hours from the start of diet after fasting” value ([9]; 16 h fasted)?
A: Its value is “reduces”.

Q: And the “food intake after 2 hours from the start of eating” value [9]?
A: Its value is “not always changed”.

Q: What about the “isomerized sugar-induced GIP secretion” value [10] of the same compound?
A: The value was “suppresses”.

Q: What about the “GLP-1 secretion (blood GLP-1 increase by nutrient)” value [11, 19] of the same compound?
A: The value was “increase; also recorded: promotes”.

Q: And the “blood GLP-1 concentration” value [11, 20]?
A: Its value is “no change”.

Q: What about the “GLP-1 concentration relative to liquid food alone” value [11, 21] of the same compound?
A: The value was “approximately double”.

Q: And the feeling of satiety ([12]; GABA 200 mg/kg po taken together with sucrose 2 g/kg po)?
A: Its feeling of satiety is “significantly induces”.

Q: And the “glucose-induced GIP secretion” value [13]?
A: Its value is “suppresses”.

Q: And the “feeling of satiety (VAS)” value ([14]; immediately after diet, 30 minutes and 60 minutes after diet)?
A: The value was “significantly increased”.

Q: What about the “appetite after diet (VAS)” value [14] of the same compound?
A: The value was “significantly reduced; also recorded: suppressed”.

Q: And the calorie intake [14]?
A: The calorie intake was “significantly low value”.

Q: What about the “feeling of satiety, area under the curve (AUC)” value [14] of the same compound?
A: The value was “significant increase; also recorded: significantly increased”.

Q: Which results are given for `O=C(CO)[C@@H](O)[C@H](O)[C@H](O)CO` [fructose, reference compound]?
A: GLP-1 secretion ([3]; fructose 1 g/kg po): enhances; food intake [15]: suppressed

Q: With `[Cl-].[Li+]` [lithium chloride] as the compound, how does the aversion [16] read?
A: The aversion was “induces aversion”.

Q: And the preference of saccharin ([16]; conditioning day 6, test day 8)?
A: The preference of saccharin was “reduced”.

Q: For `OC[C@H]1O[C@@](CO)(O[C@H]2O[C@H](CO)[C@@H](O)[C@H](O)[C@H]2O)[C@@H](O)[C@@H]1O` [sucrose, reference compound], which “satiety inducing action (intake inhibitory action)” value ([12]; sucrose 2 g/kg po alone) is on record?
A: The value was “not observed”.

Q: What does the source list for “Glucose-dependent insulinotropic polypeptide [GIP]”?
A: neural activity of afferent nerves in the hepatic branch of the vagus nerve [17]: does not result in any change; effect of GLP-1 on energy intake ([18]; GIP administered simultaneously with GLP-1): attenuated

Q: Which “neural activity of afferent nerves in the hepatic branch of the vagus nerve” value [17] does the source give for “glucagon-like peptide-1 (HAEGTFTSDVSSYLEGQAAKEFIAWLVKGR; ends and bridges not checked; UniProt P01275 98-127, looked up) [GLP-1, incretin hormone produced in endocrine L cells]” here?
A: The value was “significant increase”.

Q: And the energy intake ([18]; GLP-1 intravenously to obese patients)?
A: The energy intake was “reduced”.
